According to the supplement of paper PMC12532568:

System: Danio rerio larvae Tg(actc1b:ZsGreen-LC3), 3 dpf
Assay: LC3 puncta relative area vs vehicle (mean) (log2 fold change); higher = more autophagy
Settings: treatment time 16 h
Experimental: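 Transgenic ZsGreen-LC3 zebrafish larvae (2 dpf) were treated for 16 h with natural bioactives at 10, 50, 100 or 250 µM. Skeletal-muscle LC3 puncta area was measured by high-content imaging with or without 4 h of 100 mM NH4Cl, normalised to vehicle, and reported as the mean log2 fold change over 4–21 larvae.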

SMILES	LC3 puncta (log2) (NH4Cl: + NH4Cl, 10 µM)	LC3 puncta (log2) (NH4Cl: + NH4Cl, 50 µM)	LC3 puncta (log2) (NH4Cl: + NH4Cl, 100 µM)	LC3 puncta (log2) (NH4Cl: + NH4Cl, 250 µM)	LC3 puncta (log2) (NH4Cl: - NH4Cl, 10 µM)	LC3 puncta (log2) (NH4Cl: - NH4Cl, 50 µM)	LC3 puncta (log2) (NH4Cl: - NH4Cl, 100 µM)	LC3 puncta (log2) (NH4Cl: - NH4Cl, 250 µM)
N[C@H]1C(O)O[C@H](CO)[C@@H](O)[C@@H]1O (stereo partly drawn) [D-glucosamine]	0.082	0.412	0.454	0.285	0.0603	0.0831	0.218	0.352
CCC(O)CC(=O)O (stereo not given) [b-Hydroxyvalerate]	0.933	0.6	1.08	1.21	0.353	0.272	0.404	0.37
CCCCCCCCCCCCCCCC(=O)O [Palmitic acid]	0.572	0.0741	0.0454	0.114	0.561	-0.136	-0.712	-0.593
CC(=O)OC/C=C(C)/C=C/C=C(C)/C=C/C1=C(C)CCCC1(C)C [Retinol acetate]	0.716	0.504	0.948	1.18	0.543	0.167	0.303	1.12
O=C1C[C@H](O)[C@@H](CO)O1 [2-deoxyribonolactone]	0.749	0.4	0.746	0.616	0.195	-0.131	0.251	-0.0832
O=C(O)CC(O)(CC(=O)O)C(=O)O [Citric acid]	0.486	0.837	-0.0949	-0.815	-0.0291	-0.364	0.353	0.401
OCC(O)CO [Glycerol]	0.468	-0.233	0.425	0.628	0.0358	-0.0173	0.118	0.027
CCCCCCCC/C=C\CCCCCCCCCCCCCC(=O)O [Nervonic acid]	0.639	0.888	1.09	0.707	-0.0528	0.0416	0.723	0.0463
CCCC(=O)[O-].[Na+] [Butyric acid sodium salt]	0.256	0.65	0.615	0.513	0.036	0.362	0.26	-0.0615
O=c1c(O)c(-c2ccc(O)c(O)c2)oc2cc(O)cc(O)c12 [Quercetin]	0.773	0.126	0.298	0.298	-0.173	-0.502	-1.19	-0.815
O=C(O)c1ccccc1 [Benzoic acid]	-0.0668	0.917	1.5		0.129	0.383	1.14	
CC1=C(/C=C/C(C)=C/C=C/C(C)=C/C=C/C=C(C)/C=C/C=C(C)/C=C/C2=C(C)CCCC2(C)C)C(C)(C)CCC1 [beta-Carotene]	0.44	0.208	0.299	1.2	0.227	-0.273	0.207	0.305
O=C(O)CC(O)C(=O)O (stereo not given) [Malic acid]	0.364	0.607	0.449	0.554	-0.0981	-0.0981	-0.0374	-0.0364
CC1=C(/C=C/C(C)=C/C=C/C(C)=C/CO)C(C)(C)CCC1 [Retinol]	1.19	0.124	0.0946		0.12	-0.269	0.255	0.596
CC(O)CC(=O)O (stereo not given) [3-Hydroxybutyrate]	0.306	0.707	0.353	0.884	0.219	0.327	0.00999	0.0766
C[C@@H](O)CC(=O)O [(R)-3-Hydroxybutyric acid]	0.877	0.689	0.929	1.01	0.111	-0.78	0.265	0.324
CC(C)CC(O)C(=O)O (stereo not given) [2-Hydroxyisocaproic acid]	0.569	1.04	1.46	1.21	-0.489	0.415	0.346	0.416
O=c1oc2cc(O)ccc2c2ccccc12 [Urolithin B]	0.159	1.38	1.04		0.474	0.688	0.767	
C[N+](C)(C)CCO.C[N+](C)(C)CCO.C[N+](C)(C)CCO.O=P([O-])([O-])[O-] [Tricholine phosphate]	0.7	0.208	-0.172	0.38	0.0959	0.0907	0.25	-0.277
CC(O)CC(=O)O (stereo not given) [Sodium 3-hydroxybutyrate]	0.123	0.569	0.8	0.884	0.0599	0.278	0.0997	0.295
CCCCCCCCCCCCCCCCCC(=O)O [stearic acid]	0.718	0.677	0.635	1.13	0.39	0.392	0.127	0.245
O=C(O)C[C@H](O)C(=O)O [(2S)-2-hydroxybutanedioic acid]	0.631	0.508	0.375		-0.158	0.038	0.417	0.262
